According to article PMC7443318 (Journal of medicinal chemistry, 2020):
“Also recorded” adds a separate entry of the source.

Columns and labels:
mA3AR = target: T1, mA3AR (Mus musculus, UniProt Q61618)
T1 sequence (Q61618 1-319): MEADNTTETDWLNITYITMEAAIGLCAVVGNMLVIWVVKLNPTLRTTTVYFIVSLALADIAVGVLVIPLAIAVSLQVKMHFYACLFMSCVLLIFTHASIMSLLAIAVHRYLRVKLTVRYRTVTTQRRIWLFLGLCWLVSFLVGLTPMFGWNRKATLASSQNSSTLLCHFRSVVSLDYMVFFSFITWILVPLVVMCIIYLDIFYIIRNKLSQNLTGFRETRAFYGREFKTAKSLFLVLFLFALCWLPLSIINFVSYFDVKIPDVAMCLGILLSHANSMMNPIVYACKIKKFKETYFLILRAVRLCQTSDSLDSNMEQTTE

hA3AR [1] = target: T2, hA3AR (Homo sapiens, UniProt P0DMS8)
T2 sequence (P0DMS8 1-318): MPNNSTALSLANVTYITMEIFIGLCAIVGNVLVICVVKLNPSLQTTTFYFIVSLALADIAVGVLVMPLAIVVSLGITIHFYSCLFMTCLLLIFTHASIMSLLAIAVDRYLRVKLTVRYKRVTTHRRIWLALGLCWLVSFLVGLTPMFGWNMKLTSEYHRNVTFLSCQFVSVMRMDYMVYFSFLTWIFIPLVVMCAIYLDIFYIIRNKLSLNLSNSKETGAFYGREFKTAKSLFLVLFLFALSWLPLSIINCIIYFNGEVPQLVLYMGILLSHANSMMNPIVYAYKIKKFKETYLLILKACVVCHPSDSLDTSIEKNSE

[2] = tested on: 45 receptors, channels and transporters; assay: Off-target screen in radioligand binding assays; conditions: Table S1
[3] = tested on: wild-type C57BL/6 (WT) or A3AR-KO mice; assay: Mouse model of A3AR-induced hypothermia; type: in vivo
hA3AR [4] = target: T2, hA3AR; conditions: fixed concentration of 15 (10 μM), Figure 1C
[5] = target: translocator protein, TSPO (Rattus norvegicus, UniProt P16257); assay: Off-target radioligand binding, TSPO
translocator protein, TSPO, sequence (P16257 whole entry): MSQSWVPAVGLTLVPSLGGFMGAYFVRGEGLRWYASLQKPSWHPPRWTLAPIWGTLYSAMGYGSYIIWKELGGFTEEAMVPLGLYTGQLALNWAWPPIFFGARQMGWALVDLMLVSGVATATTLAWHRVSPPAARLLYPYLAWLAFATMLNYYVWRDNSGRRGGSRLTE

COc1ccc(CCNc2nc(C#Cc3ccccc3)nc3c2ncn3[C@H]2[C@H](O)[C@H](O)[C@@H]3C[C@@H]32)cc1O [Compound 14, (1R,2R,3S,4R,5S)-4-(6-((3-Hydroxy-4-methoxyphenethyl)amino)-2-(phenylethynyl)-9H-purin-9-yl)bicyclo[3.1.0]hexane-2,3-diol]
reduction of mA3AR affinity compared to 15 (mA3AR): 7 fold

O[C@@H]1[C@H](O)[C@@H]2C[C@@H]2[C@H]1n1cnc2c(N[C@H]3C[C@@H]3c3ccccc3)nc(C#Cc3ccc(Cl)s3)nc21 [Compound 31, (1R,2R,3S,4R,5S)-4-(2-((5-Chlorothiophen-2-yl)ethynyl)-6-(((1S,2R)-2-phenylcyclopropyl)amino)-9H-purin-9-yl)bicyclo[3.1.0]hexane-2,3-diol]
reduction of hA3AR affinity by cyclopropyl constraint of the N6-2-phenylethyl moiety (hA3AR [1]; compared to N6-2-phenylethyl analogue): ~ 10 fold

Oc1ccc(CCNc2nc(C#Cc3ccccc3)nc3c2ncn3[C@H]2[C@H](O)[C@H](O)[C@@H]3C[C@@H]32)cc1 [Compound 10, (1R,2R,3S,4R,5S)-4-(6-((4-Hydroxyphenethyl)amino)-2-(phenylethynyl)-9H-purin-9-yl)bicyclo[3.1.0]hexane-2,3-diol]
increase of mA3AR affinity compared to 8 (mA3AR): 6 fold

COc1cc(CCNc2nc(C#Cc3ccccc3)nc3c2ncn3[C@H]2[C@H](O)[C@H](O)[C@@H]3C[C@@H]32)ccc1O [Compound 15, (1R,2R,3S,4R,5S)-4-(6-((4-Hydroxy-3-methoxyphenethyl)amino)-2-(phenylethynyl)-9H-purin-9-yl)bicyclo[3.1.0]hexane-2,3-diol]
Interaction with other GPCRs [2]: did not interact | Effect of pretreatment on hypothermic effect of full agonist 39 ([3]; 3 mg/kg or 10 mg/kg 15, 30 min prior to 39 (3 mg/kg)): did not significantly attenuate | Effect on core body temperature (Tb) ([3]; 3 mg/kg, i.p., WT mice (Figure 2B)): only weak hypothermia | Effect on core body temperature (Tb) in ADORA3−/− mice ([3]; 10 mg/kg, i.p., ADORA3−/− mice, versus WT (Figure 2A)): greatly attenuated | Effect on core body temperature (Tb) ([3]; 10 mg/kg, i.p., wild-type C57BL/6 mice (Figure 2A)): lowered core body temperature | Period over which in vivo agonism was maintained ([3]; mouse): > 2 h | increase of hA3AR affinity compared to 8 (hA3AR [1]): ~ 2 fold | increase of mA3AR affinity compared to 8 (mA3AR): ~ 27 fold | Antagonism of hA3AR activation by Cl-IB-MECA 38 in cAMP assay (hA3AR [4]): greatly inhibited the activation of hA3AR by Cl-IB-MECA; also recorded: shifted the concentration-response curve of Cl-IB-MECA 38 rightward

COc1cc(CCNc2nc(C#Cc3ccc(Cl)s3)nc3c2ncn3[C@H]2[C@H](O)[C@H](O)[C@@H]3C[C@@H]32)ccc1O [Compound 29, (1R,2R,3S,4R,5S)-4-(2-((5-Chlorothiophen-2-yl)ethynyl)-6-((4-hydroxy-3-methoxyphenethyl)amino)-9H-purin-9-yl)bicyclo[3.1.0]hexane-2,3-diol]
reduction of mA3AR affinity compared to 15 (mA3AR): 4 fold

Oc1ccc(CCNc2nc(C#Cc3ccccc3)nc3c2ncn3[C@H]2[C@H](O)[C@H](O)[C@@H]3C[C@@H]32)cc1F [Compound 11, (1R,2R,3S,4R,5S)-4-(6-((3-Fluoro-4-hydroxyphenethyl)amino)-2-(phenylethynyl)-9H-purin-9-yl)bicyclo[3.1.0]hexane-2,3-diol]
increase of hA3AR affinity compared to 8 (hA3AR [1]): 2 fold

O[C@@H]1[C@H](O)[C@@H]2C[C@@H]2[C@H]1n1cnc2c(NCCc3cccc(Cl)c3)nc(C#Cc3ccc(Cl)s3)nc21 [Compound 26, (1R,2R,3S,4R,5S)-4-(6-((3-Chlorophenethyl)amino)-2-((5-chlorothiophen-2-yl)ethynyl)-9H-purin-9-yl)bicyclo[3.1.0]hexane-2,3-diol]
Ki [5]: ~350 nM

CNC(=O)[C@@]12C[C@@H]1[C@@H](n1cnc3c(NCc4cccc(Cl)c4)nc(C#Cc4ccc(F)c(F)c4)nc31)[C@H](O)[C@@H]2O [Compound 39, (1S,2R,3S,4R,5S)-4-(6-((3-chlorobenzyl)amino)-2-((3,4-difluorophenyl)-ethynyl)-9H-purin-9-yl)-2,3-dihydroxy-N-methylbicyclo[3.1.0]hexane-1-carboxamide, reference compound]
Hypothermic effect ([3]; 3 mg/kg, mice): pronounced hypothermic effect
